Data reported in patent publication US11419852B2, “Beta-lactam compounds or salts thereof for use in long-acting prevention or treatment of a glucose metabolism disorder” (GLYCOLYSIS BIOMED CO., LTD., priority 2019, dated 2022).
Marks after values point to notes of the source that are not given here.

Legend:
Type in all cases: in vivo
db/db mice [1] = test: Plasma biochemical parameters (AST, ALT, BUN, Cr, HbA1c)
Description: Inflammatory markers such as serum aspartate aminotransferase (AST), alanine aminotransferase (ALT), blood urea nitrogen (BUN), creatinine (Cr), and hemoglobin Alc (HbAlc) were measured using a BMC-Hitachi 717 chemistry auto analyzer.

[2] = Food and water intake of mice; conditions: for Food intake in db/db mice / Water intake in db/db mice: Ex 3, P<0.05; for Diet intake / Water intake: Ex 3: db/db mice, daily dosing 3 weeks at doses of Table 10
Description: (§1) Four to five weeks old db/db mice (BKS.Cg-Dock7^m+/+Lepr^db/JNarl) and m/m mice (BKS.Cg-Dock7^m+/Dock7^m+) were obtained from National Laboratory Animal Center ([…], Taiwan). […] PMI Nutrition International, Brentwood, Mo.) and water ad libitum. […] The mouse body weight (bw) and the amounts of water and food intake were recorded weekly for the entire study period.

[3] = Body weight of mice recorded weekly; conditions: Ex 3: db/db mice, daily dosing 3 weeks at doses of Table 10
Description: as §1

db/db mice [4] = test: Oral glucose tolerance test (OGTT); design: OGTT AUC: unit not given here; conditions: for OGTT AUC: Ex 3: db/db mice, daily dosing 3 weeks at doses of Table 10
Description: Four to five weeks old db/db mice (BKS.Cg-Dock7^m+/+Lepr^db/JNarl) and m/m mice (BKS.Cg-Dock7^m+/Dock7^m+) were obtained from National Laboratory Animal Center ([…], Taiwan). […] PMI Nutrition International, Brentwood, Mo.) and water ad libitum. […] Blood was sampled from the tail vein, and FPG levels were measured and recorded as the basic blood glucose levels. […] The total area under the curve (AUC) in OGTT was plotted and calculated by the Area Under Coordinates Program (StatsToDo Server, Department of Obstetrics and Gynecology, Chinese University of Hong Kong).

[5] = Ex 3, after the treatments had been stopped for 6 weeks
[6] = Ex 3: db/db mice, daily dosing 3 weeks at doses of Table 10, week 9

| Compound | ALT (db/db mice [1]; mouse, in vivo) | AST (db/db mice [1]; mouse, in vivo) | BUN (db/db mice [1]; mouse, in vivo) | Creatinine (db/db mice [1]; mouse, in vivo) | Food intake in db/db mice [2] | Water intake in db/db mice [2] | Diet intake [2] | Water intake [2] | Level of AST (db/db mice [1]; [5]) | Level of HbA1c (db/db mice [1]; [5]) | ALT (db/db mice [1]; [6]) | AST (db/db mice [1]; [6]) | HbA1c (db/db mice [1]; [6]) | Body weight ([3]; Baseline) | Body weight ([3]; Final) | Body weight ([3]; Week 3) | Body weight ([3]; Week 6 (stopped for 3 weeks)) | Body weight ([3]; Week 9 (stopped for 6 weeks)) | OGTT AUC (db/db mice [4]; Week 6 (stopped for 3 weeks)) | OGTT AUC (db/db mice [4]; Week 9 (stopped for 6 weeks)) | other results |
| --- | --- | --- | --- | --- | --- | --- | --- | --- | --- | --- | --- | --- | --- | --- | --- | --- | --- | --- | --- | --- | --- |
| tienam | 104 ± 10^cd U/L | 212 ± 43^e U/L | 47 ± 4^d mg/dL | 0.473 ± 0.05^be mg/dL |  |  |  |  |  |  |  |  |  |  |  |  |  |  |  |  |  |
| CO/N=C(\C(=O)N[C@@H]1C(=O)N2C(C(=O)O)=C(CSc3nc(=O)c(=O)[nH]n3C)CS[C@H]12)c1csc(N)n1 [CEFT, ceftriaxone] |  |  |  |  | significantly reduced | significantly reduced | 5.0 ± 1^b g/mice/day | 7.1 ± 1^b mL/mice/day | reduce | reduce | 80 ± 7^bc U/L | 104 ± 10^ac U/L | 4.9 ± 0.2^c % | 30.0 ± 1^b | 37.8 ± 2^c | 32.9 ± 1^cd | 34.1 ± 2^b | 38.8 ± 2^c | 1276 ± 69^b | 1483 ± 37^ce | Level of ALT (db/db mice [1]; [5]): reduce; Level of BUN (db/db mice [1]; [5]): reduce; Level of Cr (db/db mice [1]; [5]): reduce; BUN (db/db mice [1]; [6]): 38 ± 2^bc mg/dL; Creatinine (db/db mice [1]; [6]): 0.428 ± 0.01^b mg/dL |
| C[C@@H](O)[C@H]1C(=O)N2C(C(=O)O)=C(S[C@@H]3CN[C@H](C(=O)N(C)C)C3)[C@H](C)[C@H]12 [MER, meropenem hydrate] |  |  |  |  |  |  | 5.9 ± 1^c g/mice/day | 14.7 ± 1^e mL/mice/day | reduce |  | 89 ± 5^bcd U/L | 93 ± 8^ab U/L | 6.9 ± 0.3^e % | 28.3 ± 1^b | 36.0 ± 2^bc | 33.6 ± 1^cd | 37.1 ± 1b^c | 38.2 ± 2^c | 1599 ± 39^c | 1648 ± 61^def | BUN (db/db mice [1]; [6]): 43 ± 2^bd mg/dL; Creatinine (db/db mice [1]; [6]): 0.488 ± 0.03^cde mg/dL |
| CC1(C)S[C@@H]2[C@H](NC(=O)Cc3ccccc3)C(=O)N2[C@H]1C(=O)O [PEN, penicillin G] | 72 ± 20^ab U/L | 169 ± 24^de U/L | 41 ± 5^bd mg/dL | 0.424 ± 0.02^ab mg/dL | significantly reduced | significantly reduced | 4.0 ± 0.9^a g/mice/day | 8.3 ± 4^c mL/mice/day |  | reduce |  |  | 4.2 ± 0.2^a % | 31.1 ± 1^b | 32.2 ± 1^b | 25.7 ± 1^b | 24.6 ± 1^a | 32.4 ± 1^b | 1088 ± 91^b | 1181 ± 69^b | Regulation of blood glucose homeostasis (OGTT glucose vs G8) (db/db mice [4]; Ex 3, medications stopped for at least 3 weeks (FIG. 6A, 6B)): still effective |
